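Protocol summary: plate cells (96-well), add compound at 5 concentrations, incubate 48 h, interpolate endpoints linearly. TGI marks complete inhibition of growth.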
Assays:
Test in all cases: inhibition of tumour cell growth, NCI panel, 48 h
SK-MEL-2 melanoma = test system: SK-MEL-2 melanoma
KM20L2 colon = test system: KM20L2 colon
HOP-62 NSCLC = test system: HOP-62 NSCLC
HOP-92 NSCLC = test system: HOP-92 NSCLC
UACC-62 melanoma = test system: UACC-62 melanoma
HCT-116 colon = test system: HCT-116 colon
DMS 114 small cell lung = test system: DMS 114 small cell lung
CCRF-CEM leukemia = test system: CCRF-CEM leukemia
SN12C renal = test system: SN12C renal
EKVX NSCLC = test system: EKVX NSCLC
U251 CNS = test system: U251 CNS
HCC-2998 colon = test system: HCC-2998 colon
SK-MEL-28 melanoma = test system: SK-MEL-28 melanoma
KM12 colon = test system: KM12 colon
DLD-1 colon = test system: DLD-1 colon
SR leukemia = test system: SR leukemia
M14 melanoma = test system: M14 melanoma
M19-MEL melanoma = test system: M19-MEL melanoma
UACC-257 melanoma = test system: UACC-257 melanoma
OVCAR-3 ovarian = test system: OVCAR-3 ovarian
SNB-75 CNS = test system: SNB-75 CNS
RPMI-8226 leukemia = test system: RPMI-8226 leukemia
COLO 205 colon = test system: COLO 205 colon
SW-620 colon = test system: SW-620 colon
MALME-3M melanoma = test system: MALME-3M melanoma
NCI-H226 lung = test system: NCI-H226 lung
OVCAR-8 ovarian = test system: OVCAR-8 ovarian
K-562 leukemia = test system: K-562 leukemia
TK-10 renal = test system: TK-10 renal
HT29 colon = test system: HT29 colon
SF-539 CNS = test system: SF-539 CNS
RXF-631 renal = test system: RXF-631 renal
786-0 renal = test system: 786-0 renal
RXF 393 renal = test system: RXF 393 renal
IGROV1 ovarian = test system: IGROV1 ovarian
SNB-19 CNS = test system: SNB-19 CNS
CAKI-1 renal = test system: CAKI-1 renal
DMS 273 small cell lung = test system: DMS 273 small cell lung
SF-295 CNS = test system: SF-295 CNS
NCI-H23 lung = test system: NCI-H23 lung
XF 498 CNS = test system: XF 498 CNS
SF-268 CNS = test system: SF-268 CNS
HL-60(TB) leukemia = test system: HL-60(TB) leukemia
OVCAR-4 ovarian = test system: OVCAR-4 ovarian
HOP-18 NSCLC = test system: HOP-18 NSCLC
LXFL 529 NSCLC = test system: LXFL 529 NSCLC
MOLT-4 leukemia = test system: MOLT-4 leukemia
ACHN renal = test system: ACHN renal
HCT-15 colon = test system: HCT-15 colon
A549 NSCLC = test system: A549 NSCLC
NCI-H522 lung = test system: NCI-H522 lung
NCI-H460 lung = test system: NCI-H460 lung
UO-31 renal = test system: UO-31 renal
A498 renal = test system: A498 renal
LOX IMVI melanoma = test system: LOX IMVI melanoma
SK-MEL-5 melanoma = test system: SK-MEL-5 melanoma

Question: `CCCN(CCCC(NC(C)=O)C(=O)NCc1ccccc1)C(=O)NCCCl` (configuration not stated) was tested. Which TGI (SK-MEL-2 melanoma) did it give?
Answer: > 100 µM

Question: What about the TGI (KM20L2 colon) of the same compound?
Answer: > 100 µM

Question: And the TGI (HOP-62 NSCLC)?
Answer: > 100 µM

Question: And the TGI (HOP-92 NSCLC)?
Answer: > 100 µM

Question: What about the TGI (UACC-62 melanoma) of the same compound?
Answer: > 100 µM

Question: What about the TGI (HCT-116 colon) of the same compound?
Answer: > 100 µM

Question: What about the TGI (DMS 114 small cell lung) of the same compound?
Answer: > 100 µM

Question: What about the TGI (CCRF-CEM leukemia) of the same compound?
Answer: > 100 µM

Question: What about the TGI (SN12C renal) of the same compound?
Answer: > 100 µM

Question: What about the TGI (EKVX NSCLC) of the same compound?
Answer: > 100 µM

Question: And the TGI (U251 CNS)?
Answer: > 100 µM

Question: And the TGI (HCC-2998 colon)?
Answer: > 100 µM

Question: And the TGI (SK-MEL-28 melanoma)?
Answer: > 100 µM

Question: What about the TGI (KM12 colon) of the same compound?
Answer: > 100 µM

Question: And the TGI (DLD-1 colon)?
Answer: > 100 µM

Question: And the TGI (SR leukemia)?
Answer: > 100 µM

Question: And the TGI (M14 melanoma)?
Answer: > 100 µM

Question: And the TGI (M19-MEL melanoma)?
Answer: > 100 µM

Question: And the TGI (UACC-257 melanoma)?
Answer: > 100 µM

Question: And the TGI (OVCAR-3 ovarian)?
Answer: > 100 µM

Question: And the TGI (SNB-75 CNS)?
Answer: > 100 µM

Question: What about the TGI (RPMI-8226 leukemia) of the same compound?
Answer: > 100 µM

Question: What about the TGI (COLO 205 colon) of the same compound?
Answer: > 100 µM

Question: What about the TGI (SW-620 colon) of the same compound?
Answer: > 100 µM

Question: What about the TGI (MALME-3M melanoma) of the same compound?
Answer: > 100 µM

Question: What about the TGI (NCI-H226 lung) of the same compound?
Answer: > 100 µM

Question: What about the TGI (OVCAR-8 ovarian) of the same compound?
Answer: > 100 µM

Question: What about the TGI (K-562 leukemia) of the same compound?
Answer: > 100 µM

Question: And the TGI (TK-10 renal)?
Answer: > 100 µM

Question: What about the TGI (HT29 colon) of the same compound?
Answer: > 100 µM

Question: And the TGI (SF-539 CNS)?
Answer: > 100 µM

Question: What about the TGI (RXF-631 renal) of the same compound?
Answer: > 100 µM

Question: What about the TGI (786-0 renal) of the same compound?
Answer: > 100 µM

Question: What about the TGI (RXF 393 renal) of the same compound?
Answer: > 100 µM

Question: What about the TGI (IGROV1 ovarian) of the same compound?
Answer: > 100 µM

Question: What about the TGI (SNB-19 CNS) of the same compound?
Answer: > 100 µM

Question: And the TGI (CAKI-1 renal)?
Answer: > 100 µM

Question: And the TGI (DMS 273 small cell lung)?
Answer: > 100 µM

Question: What about the TGI (SF-295 CNS) of the same compound?
Answer: > 100 µM

Question: What about the TGI (NCI-H23 lung) of the same compound?
Answer: > 100 µM

Question: And the TGI (XF 498 CNS)?
Answer: > 100 µM

Question: And the TGI (SF-268 CNS)?
Answer: > 100 µM

Question: What about the TGI (HL-60(TB) leukemia) of the same compound?
Answer: > 100 µM

Question: What about the TGI (OVCAR-4 ovarian) of the same compound?
Answer: > 100 µM

Question: And the TGI (HOP-18 NSCLC)?
Answer: > 100 µM

Question: What about the TGI (LXFL 529 NSCLC) of the same compound?
Answer: > 100 µM

Question: And the TGI (MOLT-4 leukemia)?
Answer: > 100 µM

Question: What about the TGI (ACHN renal) of the same compound?
Answer: > 100 µM

Question: What about the TGI (HCT-15 colon) of the same compound?
Answer: > 100 µM

Question: And the TGI (A549 NSCLC)?
Answer: > 100 µM

Question: And the TGI (NCI-H522 lung)?
Answer: > 100 µM

Question: What about the TGI (NCI-H460 lung) of the same compound?
Answer: > 100 µM

Question: And the TGI (UO-31 renal)?
Answer: > 100 µM

Question: Which results are given for `CCOC(=O)C(C)(C)Oc1ccc(/C=C/C(=O)c2ccc(Cl)cc2)cc1`?
Answer: TGI (SK-MEL-2 melanoma): 39 µM; TGI (KM20L2 colon): 33.7 µM; TGI (HOP-62 NSCLC): > 100 µM; TGI (UACC-62 melanoma): 44 µM; TGI (HCT-116 colon): 31.5 µM; TGI (DMS 114 small cell lung): 36.8 µM; TGI (CCRF-CEM leukemia): 61.9 µM; TGI (SN12C renal): 36 µM; TGI (EKVX NSCLC): > 100 µM; TGI (U251 CNS): 31.9 µM; TGI (SK-MEL-28 melanoma): 34.7 µM; TGI (DLD-1 colon): 27.9 µM; TGI (SR leukemia): > 100 µM; TGI (M14 melanoma): 34.7 µM; TGI (M19-MEL melanoma): 38.2 µM; TGI (UACC-257 melanoma): 41.4 µM; TGI (OVCAR-3 ovarian): 30.4 µM; TGI (SNB-75 CNS): 32.6 µM; TGI (RPMI-8226 leukemia): 53 µM; TGI (COLO 205 colon): 53.2 µM; TGI (SW-620 colon): 28 µM; TGI (MALME-3M melanoma): 34.6 µM; TGI (NCI-H226 lung): 70.5 µM; TGI (OVCAR-8 ovarian): 41.3 µM; TGI (K-562 leukemia): 82.2 µM; TGI (TK-10 renal): > 100 µM; TGI (HT29 colon): 29.3 µM; TGI (SF-539 CNS): 34 µM; TGI (RXF-631 renal): 38.5 µM; TGI (786-0 renal): 30.9 µM; TGI (RXF 393 renal): 30.5 µM; TGI (A498 renal): 52.8 µM; TGI (IGROV1 ovarian): 35.1 µM; TGI (SNB-19 CNS): 37.7 µM; TGI (DMS 273 small cell lung): 34.6 µM; TGI (SF-295 CNS): 41.2 µM; TGI (NCI-H23 lung): 37.1 µM; TGI (XF 498 CNS): 39.1 µM; TGI (SF-268 CNS): 37.1 µM; TGI (HL-60(TB) leukemia): > 100 µM; TGI (OVCAR-4 ovarian): 32.9 µM; TGI (LXFL 529 NSCLC): 29.2 µM; TGI (MOLT-4 leukemia): 76.8 µM; TGI (HCT-15 colon): 34.3 µM; TGI (LOX IMVI melanoma): 30.7 µM; TGI (A549 NSCLC): > 100 µM; TGI (NCI-H460 lung): > 100 µM; TGI (SK-MEL-5 melanoma): 28.3 µM; TGI (UO-31 renal): > 100 µM
